In patent US20240018145A1, “[…]-DEPENDENT EN[…] TREATING OR […]” (priority 2020, published 2024):

tested on: FLU A (PR/8/34); experiment: Flu A Neuraminidase Antiviral Assay; assay type: cell-based; conditions: not given

SMILES | EC50 [nM]
CN1C(=O)c2c(O)c(=O)ccn2N2C1CCCC2(C)c1cccc(OC(F)F)c1 (single isomer, unassigned) [Compound 51A, 1-(3-(difluoromethoxy)phenyl)-7-hydroxy-1,5-dimethyl-1,2,3,4,4a,5-hexahydrodipyrido[1,2-b:2′,1′-f][1,2,4]triazine-6,8-dione] | > 8100
Cc1ccccc1C1C(CC(F)(C(F)(F)F)C(F)(F)F)CCC2N(C)C(=O)c3c(O)c(=O)ccn3N12 (single isomer, unassigned) [Compound 81A, 7-hydroxy-5-methyl-2-(2,3,3,3-tetrafluoro-2-(trifluoromethyl)propyl)-1-(o-tolyl)-1,2,3,4,4a,5-hexahydrodipyrido[1,2-b:2′,1′-f][1,2,4]triazine-6,8-dione] | 19.1
CN1C(=O)c2c(O)c(=O)ccn2N2C(c3ccccc3F)C(CC(F)(F)F)CCC12 (single isomer, unassigned) [Compound 127A, 1-(2-fluorophenyl)-7-hydroxy-5-methyl-2-(2,2,2-trifluoroethyl)-1,2,3,4,4a,5-hexahydrodipyrido[1,2-b:2′,1′-f][1,2,4]triazine-6,8-dione] | 3500
Cc1ccccc1C1C(CC(F)(F)F)CCC2N(C)C(=O)c3c(O)c(=O)ccn3N12 (single isomer, unassigned) [Compound 120B, 7-hydroxy-5-methyl-1-(o-tolyl)-2-(2,2,2-trifluoroethyl)-1,2,3,4,4a,5-hexahydrodipyrido[1,2-b:2′,1′-f][1,2,4]triazine-6,8-dione] | 1.9
Cc1ccnc(C2(C)CCCC3N(CC(F)(F)F)C(=O)c4c(O)c(=O)ccn4N32)c1 (single isomer, unassigned) [Compound 50A, 7-hydroxy-1-methyl-1-(4-methylpyridin-2-yl)-5-(2,2,2-trifluoroethyl)-1,2,3,4,4a,5-hexahydrodipyrido[1,2-b:2′,1′-f][1,2,4]triazine-6,8-dione] | > 8100
CN1C(=O)c2c(O)c(=O)ccn2N2C(c3ccc(Cl)c(F)c3)CCCC12 (single isomer, unassigned) [Compound 3B, 1-(4-chloro-3-fluorophenyl)-7-hydroxy-5-methyl-1,2,3,4,4a,5-hexahydrodipyrido[1,2-b:2′,1′-f][1,2,4]triazine-6,8-dione] | > 2700
CN1C(=O)c2c(O)c(=O)ccn2N2C1CCCC2(C)c1ccccn1 (single isomer, unassigned) [Compound 30B, 7-hydroxy-1,5-dimethyl-1-(pyridin-2-yl)-1,2,3,4,4a,5-hexahydrodipyrido[1,2-b:2′,1′-f][1,2,4]triazine-6,8-dione] | 5300
C=CCC1CCC2N(C)C(=O)c3c(O)c(=O)ccn3N2C1c1ccccc1Cl (centres unmarked) [Compound 64C, 2-allyl-1-(2-chlorophenyl)-7-hydroxy-5-methyl-1,2,3,4,4a,5-hexahydrodipyrido[1,2-b:2′,1′-f][1,2,4]triazine-6,8-dione] | 674
Cc1ccccc1C1N2C(CCC13CC1C(C3)C1(F)F)N(C)C(=O)c1c(O)c(=O)ccn12 (single isomer, unassigned) [Compound 69B, 6,6-difluoro-7′-hydroxy-5′-methyl-1′-(o-tolyl)-3′,4′,4a′,5′-tetrahydro-1′H-spiro[bicyclo[3.1.0]hexane-3,2′-dipyrido[1,2-b:2′,1′-f][1,2,4]triazine]-6′,8′-dione] | 57
Cc1cc(=O)c(O)c2n1N1C(c3ccccc3)C(CC(F)(F)F)CCC1N(C)C2=O (single isomer, unassigned) [Compound 132C, 7-hydroxy-5,10-dimethyl-1-phenyl-2-(2,2,2-trifluoroethyl)-1,2,3,4,4a,5-hexahydrodipyrido[1,2-b:2′,1′-f][1,2,4]triazine-6,8-dione] | > 810
CCN1C(=O)c2c(O)c(=O)ccn2N2C(c3ccccc3)C(CC(F)(F)F)CCC12C (single isomer, unassigned) [Compound 82A, 5-ethyl-7-hydroxy-4a-methyl-1-phenyl-2-(2,2,2-trifluoroethyl)-1,2,3,4,4a,5-hexahydrodipyrido[1,2-b:2′,1′-f][1,2,4]triazine-6,8-dione] | > 810
CN1C(=O)c2c(O)c(=O)ccn2N2[C@H](c3ccccc3)[C@H](OCC(F)F)CC[C@@H]12 (single isomer, unassigned) [Compound 153A] | 3060
CCCC1CCC2N(CC)C(=O)c3c(O)c(=O)ccn3N2C1c1ccccc1F (single isomer, unassigned) [Compound 96A, 5-ethyl-1-(2-fluorophenyl)-7-hydroxy-2-propyl-1,2,3,4,4a,5-hexahydrodipyrido[1,2-b:2′,1′-f][1,2,4]triazine-6,8-dione] | > 810
CC1(c2ccccn2)CCCC2N(CC(F)(F)F)C(=O)c3c(O)c(=O)ccn3N21 (single isomer, unassigned) [Compound 39A, 7-hydroxy-1-methyl-1-(pyridin-2-yl)-5-(2,2,2-trifluoroethyl)-1,2,3,4,4a,5-hexahydrodipyrido[1,2-b:2′,1′-f][1,2,4]triazine-6,8-dione] | > 8100
CN1C(=O)c2c(O)c(=O)ccn2N2C(c3ccccc3)C(CCC(F)F)CCC12 (single isomer, unassigned) [Compound 124B, 2-(3,3-difluoropropyl)-7-hydroxy-5-methyl-1-phenyl-1,2,3,4,4a,5-hexahydrodipyrido[1,2-b:2′,1′-f][1,2,4]triazine-6,8-dione] | 1.6
CN1C(=O)c2c(O)c(=O)ccn2N2C(c3ccccc3Br)C(CC(F)(F)F)CCC12 (single isomer, unassigned) [Compound 89A, 1-(2-bromophenyl)-7-hydroxy-5-methyl-2-(2,2,2-trifluoroethyl)-1,2,3,4,4a,5-hexahydrodipyrido[1,2-b:2′,1′-f][1,2,4]triazine-6,8-dione] | 298
CC1(c2nccs2)CCCC2N(CC(F)(F)F)C(=O)c3c(O)c(=O)ccn3N21 (single isomer, unassigned) [Compound 41A, 7-hydroxy-1-methyl-1-(thiazol-2-yl)-5-(2,2,2-trifluoroethyl)-1,2,3,4,4a,5-hexahydrodipyrido[1,2-b:2′,1′-f][1,2,4]triazine-6,8-dione] | > 8100
CN1C(=O)c2c(O)c(=O)ccn2N2C(c3ccccc3)C3CCC(C3)C12 (single isomer, unassigned) [Compound 9C, 4-hydroxy-6-methyl-11-phenyl-6a,7,8,9,10,11-hexahydro-3H-7,10-methanopyrido[1′,2′:1,6][1,2,4]triazino[2,3-a]azepine-3,5(6H)-dione] | > 8100
O=C1c2c(O)c(=O)ccn2N2C(c3ccccc3)C(CCC(F)(F)F)CCC2N1CC1CC1 (single isomer, unassigned) [Compound 100B, 5-(cyclopropylmethyl)-7-hydroxy-1-phenyl-2-(3,3,3-trifluoropropyl)-1,2,3,4,4a,5-hexahydrodipyrido[1,2-b:2′,1′-f][1,2,4]triazine-6,8-dione] | 5.4
CCCC1CCC2N(C)C(=O)c3c(O)c(=O)ccn3N2C1(C)c1ccccc1 (single isomer, unassigned) [Compound 33D, 7-hydroxy-1,5-dimethyl-1-phenyl-2-propyl-1,2,3,4,4a,5-hexahydrodipyrido[1,2-b:2′,1′-f][1,2,4]triazine-6,8-dione] | 2.3
CN1C(=O)c2c(O)c(=O)ccn2N2C1CCC(C)(C)C2(C)c1ccccc1 (single isomer, unassigned) [Compound 35A, 7-hydroxy-1,2,2,5-tetramethyl-1-phenyl-1,2,3,4,4a,5-hexahydrodipyrido[1,2-b:2′,1′-f][1,2,4]triazine-6,8-dione] | 138
CN1C(=O)c2c(O)c(=O)ccn2N2C(c3ccccc3)CCCC12 (single isomer, unassigned) [Compound 1A, 7-hydroxy-5-methyl-1-phenyl-1,2,3,4,4a,5-hexahydrodipyrido[1,2-b:2′,1′-f][1,2,4]triazine-6,8-dione] | > 8100
COc1ccccc1C1CCCC2N(C)C(=O)c3c(O)c(=O)ccn3N12 (single isomer, unassigned) [Compound 19A, 7-hydroxy-1-(2-methoxyphenyl)-5-methyl-1,2,3,4,4a,5-hexahydrodipyrido[1,2-b:2′,1′-f][1,2,4]triazine-6,8-dione] | > 8100
Cc1ccccc1C1C(CC2CC2(F)F)CCC2N(C)C(=O)c3c(O)c(=O)ccn3N12 (single isomer, unassigned) [Compound 88A] | > 810

same assay, conditions: MDCK, 48 h

SMILES | EC50 [nM]
CN1C(=O)c2c(O)c(=O)ccn2N2C(c3ccccc3)C(C3CC3(F)F)CCC12 (single isomer, unassigned) [Compound 105A, 2-(2,2-difluorocyclopropyl)-7-hydroxy-5-methyl-1-phenyl-1,2,3,4,4a,5-hexahydrodipyrido[1,2-b:2′,1′-f][1,2,4]triazine-6,8-dione] | 413
CN1C(=O)c2c(O)c(=O)ccn2N2C1CCC1(CCC(F)(F)C1)C2c1ccccc1 (single isomer, unassigned) [Compound 68A, 3,3-difluoro-7′-hydroxy-5′-methyl-1′-phenyl-3′,4′,4a′,5′-tetrahydro-1′H-spiro[cyclopentane-1,2′-dipyrido[1,2-b:2′,1′-f][1,2,4]triazine]-6′,8′-dione] | 349
CC(C)O[C@H]1CC[C@H]2N(C)C(=O)c3c(O)c(=O)ccn3N2[C@@H]1c1ccccc1 [Compound 155, (1R,2S,4aS)-7-hydroxy-2-isopropoxy-5-methyl-1-phenyl-1,2,3,4,4a,5-hexahydrodipyrido[1,2-b:2′,1′-f][1,2,4]triazine-6,8-dione] | 185
CCN1C(=O)c2c(O)c(=O)cc(COC)n2N2C(c3ccccc3)C(CC(F)(F)F)CCC12 (single isomer, unassigned) [Compound 131A, 5-ethyl-7-hydroxy-10-(methoxymethyl)-1-phenyl-2-(2,2,2-trifluoroethyl)-1,2,3,4,4a,5-hexahydrodipyrido[1,2-b:2′,1′-f][1,2,4]triazine-6,8-dione] | > 810
CN1C(=O)c2c(O)c(=O)ccn2N2C(c3ccccc3)C3CCCC(C3)C12 (single isomer, unassigned) [Compound 11A, 4-hydroxy-6-methyl-12-phenyl-6,6a,7,8,9,10,11,12-octahydro-7,11-methanopyrido[1′,2′:1,6][1,2,4]triazino[2,3-a]azocine-3,5-dione] | > 8100
